Measured values published in US20230357447A1, “TUMOR ACTIVATED MULTISPECIFIC ANTIBODIES FOR TARGETING CD28 AND PD-L1 AND METHODS OF USE THEREOF” (Janux Therapeutics, Inc., priority 2022, published 2023).

System: anti-CD28 scFv
Test: Phage binding ELISA (panning) of clonal phage on anti-CD28 scFv, with or without CD28 soluble protein
Settings: clonal phage supernatant
Protocol: Clonal phage were harvested as crude supernatants and screened via standard enzyme linked immunosorbent assays (ELISAs). […] Prior to the addition of clonal phage, wells were incubated with blocking buffer and CD28 soluble protein or blocking buffer alone. Without washing or aspirating, clonal phage supernatants were then added to the wells and incubated for a short time. Wells were then washed followed by detection of bound phage using a horse radish peroxidase conjugated anti-M13 antibody. Clonal phage of interest were then sent for sequence analysis.

[1] = background (no anti-CD28 scFv signal)

Row | Substance | Phage binding ELISA Backgroud signal (background signal) | Phage binding ELISA Backgroud signal [1]
1 | Phage-267 (MTLCLSVDLVHCWY) | 0.114 | –
2 | Phage-269 (DSFCTWSAWQECGR) | 0.072 | –
3 | Phage-270 (MDWCPRDFWAFCFF) | 0.118 | –
4 | Phage-271 (MDWCPTSFWNRCFH) | 0.102 | –
5 | Phage-272 (MVWCMSVGWAVCLN) | 0.289 | –
6 | Phage-274 (WVSCLRHHWLECFH) | 0.781 | –
7 | Phage-275 (MDWCPRDHWVDCYS) | 0.172 | –
8 | Phage-276 (IDWCPKIHWDLCYF) | 0.072 | –
9 | Phage-277 (MDWCPRSHWSECFS) | 0.080 | –
10 | Phage-279 (MDWCPRYLWAECFN) | 0.068 | –
11 | Phage-280 (MDWCPRYLWDYCFA) | 0.073 | –
12 | Phage-281 (MDWCPRSLWFLCFN) | 1.110 | –
13 | Phage-282 (MDWCPRDLWFACFA) | 0.060 | –
14 | Phage-283 (MDWCPRHLWNECFN) | 0.079 | –
15 | Phage-284 (MDWCPRFLWHVCFS) | 2.091 | –
16 | Phage-285 (MDWCPRDLWAMCFA) | 0.071 | –
17 | Phage-286 (MERCPRYLWHMCYS) | 0.164 | –
18 | Phage-288 (MDWCPIALWDFCFA) | 0.073 | –
19 | Phage-290 (MDWCPRDLWSVCFS) | 0.090 | –
20 | Phage-291 (MDWCPRYLWHVCFY) | 0.227 | –
21 | Phage-292 (MDWCPRALWDHCFF) | 0.081 | –
22 | Phage-293 (MDWCPRHLWFECFN) | 0.064 | –
23 | Phage-294 (MDWCPRSLWDYCFA) | 0.115 | –
24 | Phage-299 (MDWCPIYLWAECFN) | 0.078 | –
25 | Phage-300 (MDWCPRHLWFECFF) | 0.178 | –

Row | Substance | Phage binding ELISA Backgroud signal (background signal) | Phage binding ELISA Backgroud signal [1]
26 | Phage-301 (MDWCPRYLWHECFF) | 0.082 | –
27 | Phage-302 (MDWCPRYLWHVCFD) | 0.068 | –
28 | Phage-303 (MDWCPRYLWTECFS) | 0.074 | –
29 | Phage-304 (MDWCPKFLWDECFA) | 0.311 | –
30 | Phage-305 (MDWCPRDLWTECFS) | 0.080 | –
31 | Phage-306 (MDWCPRHLWNECFA) | 0.068 | –
32 | Phage-307 (MDWCPRYLWPVCFH) | 0.179 | –
33 | Phage-308 (MDWCPKSLWAECFN) | 0.395 | –
34 | Phage-309 (MDWCPMFLWHECFN) | 0.170 | –
35 | Phage-310 (MDWCPRDLWDECFN) | 0.066 | –
36 | Phage-311 (MDWCPRDLWYQCFN) | 0.069 | –
37 | Phage-313 (MDWCPRSLWNYCFN) | 0.076 | –
38 | Phage-314 (MDWCPIHLWNECFN) | 0.074 | –
39 | Phage-315 (MDWCPTYLWHVCFS) | 0.089 | –
40 | Phage-316 (MDWCPRSLWNYCFA) | 0.067 | –
41 | Phage-317 (MDWCPRHLWHECFT) | 0.103 | –
42 | Phage-318 (MDWCPMFLWDECFN) | 0.132 | –
43 | Phage-319 (MSWCPRDLWHLCFF) | 0.077 | –
44 | Phage-320 (MDWCPTYLWNECFN) | 0.120 | –
45 | Phage-321 (MDWCPRDLWYVCFA) | 0.095 | –
46 | Phage-322 (MDWCPRHLWIECFN) | 0.339 | –
47 | Phage-323 (MDWCPTYLWNVCFA) | 0.085 | –
48 | Phage-324 (MDWCPRHLWYECFS) | 0.216 | –
49 | Phage-325 (MDWCPAYLWDECFA) | 0.096 | –
50 | Phage-326 (MFWCPITLWNECFN) | 0.075 | –

Row | Substance | Phage binding ELISA Backgroud signal (background signal) | Phage binding ELISA Backgroud signal [1]
51 | Phage-327 (MHWCPRDLWHVCFN) | 0.071 | –
52 | Phage-328 (MDWCPRALWDHCFN) | 0.323 | –
53 | Phage-329 (MDWCPRALWNVCFA) | 0.071 | –
54 | Phage-330 (MDWCPRFLWDVCFN) | 0.100 | –
55 | Phage-331 (MDWCPRHLWDECFY) | 0.098 | –
56 | Phage-332 (IDWCPRALWDACLA) | 0.269 | –
57 | Phage-333 (MDWCPTDLWHECFA) | 0.078 | –
58 | Phage-334 (MDWCPRYLWDECFS) | 0.069 | –
59 | Phage-335 (MDWCPRFLWDYCFA) | 0.146 | –
60 | Phage-336 (MDWCPRDLWNWCFN) | 0.139 | –
61 | Phage-337 (MDWCPKPLWHVCFA) | 0.069 | –
62 | Phage-338 (MDWCPRFLWNECFY) | 0.143 | –
63 | Phage-339 (MDWCPRTLWDQCFF) | 0.088 | –
64 | Phage-340 (MSWCPIDLWSECFA) | 0.072 | –
65 | Phage-341 (MDWCPRHLWDECFN) | 0.084 | –
66 | Phage-342 (MDWCPRNLWHECFA) | 0.067 | –
67 | Phage-343 (MDWCPRDLWTQCFF) | 0.065 | –
68 | Phage-344 (MDWCPRHLWVHCFS) | 0.096 | –
69 | Phage-345 (MDFCPRFLWHECFN) | 0.063 | –
70 | Phage-346 (MDWCPRHLWHACFS) | 0.073 | –
71 | Phage-347 (MDWCPLFLWDQCFN) | 0.116 | –
72 | Phage-348 (MAWCPWYLWDECFN) | 0.200 | –
73 | Phage-349 (LDWCPRHLWALCFN) | 0.073 | –
74 | Phage-350 (MDWCPWFLWNECFN) | 0.158 | –
75 | Phage-351 (MDWCPMNLWHECFA) | 0.080 | –

Row | Substance | Phage binding ELISA Backgroud signal (background signal) | Phage binding ELISA Backgroud signal [1]
76 | Phage-352 (MDWCPIHLWYECFN) | 0.080 | –
77 | Phage-353 (IDWCPLHLWHECYH) | 0.067 | –
78 | Phage-354 (MDWCPRYLWLECFN) | 0.083 | –
79 | Phage-356 (MDWCPMYLWDECFF) | 0.082 | –
80 | Phage-357 (MDWCPRLLWHECFN) | 0.071 | –
81 | Phage-359 (MDWCPRPLWHECFA) | 0.063 | –
82 | Phage-360 (MDWCPMFLWHECFS) | 0.092 | –
83 | Phage-361 (MHWCPRHLWSECFN) | 0.165 | –
84 | Phage-362 (MDWCPRILWHECFS) | 0.064 | –
85 | Phage-363 (MNWCPMHLWAECFN) | 0.087 | –
86 | Phage-364 (MDWCPRSLWAQCFY) | 0.067 | –
87 | Phage-365 (MDWCPSYLWPVCFN) | 0.079 | –
88 | Phage-366 (MHWCPLYLWDECFY) | 0.153 | –
89 | Phage-367 (MDWCPSFLWYECFN) | 0.063 | –
90 | Phage-368 (MSWCPPYLWTVCYN) | 0.176 | –
91 | Phage-369 (MHWCPRDLWYECFA) | 0.072 | –
92 | Phage-370 (MTWCPAYLWHECFN) | 0.086 | –
93 | Phage-372 (MDWCPRYLWVDCFA) | 0.095 | –
94 | Phage-373 (MDWCPRILWSDCFN) | 0.082 | –
95 | Phage-374 (MAWCPLDLWDKCFY) | 0.079 | –
96 | Phage-375 (MNWCPRALWHECFL) | 0.085 | –
97 | Phage-376 (MDWCPRHLWTYCFH) | 0.109 | –
98 | Phage-377 (MDWCPFDLWLECFN) | 0.087 | –
99 | Phage-378 (MHWCPLHLWNECFA) | 0.065 | –
100 | Phage-379 (MDWCPRNLWAECFS) | 0.061 | –

Row | Substance | Phage binding ELISA Backgroud signal (background signal) | Phage binding ELISA Backgroud signal [1]
101 | Phage-380 (MDYCPSYLWHECFA) | – | 0.065
102 | Phage-381 (MAWCPRILWHQCFN) | – | 0.113
103 | Phage-382 (ITWCPTSLWNRCLV) | – | 0.077
104 | Phage-383 (LAGCQRDLATVCVI) | – | 0.068
105 | Phage-384 (IMWCPTSLWNRCVT) | – | 0.104
106 | Phage-386 (NHWCPTTLWNRCVA) | – | 0.293
107 | Phage-387 (MDWCPRHLWLECFN) | – | 0.064
108 | Phage-388 (MDWCPRFMWNFCFF) | – | 2.200
109 | Phage-391 (MDWCPFDMWADCFF) | – | 0.063
110 | Phage-393 (MDWCPRDMWFECFN) | – | 0.069
111 | Phage-394 (MDWCPRYMWSDCFF) | – | 0.082
112 | Phage-395 (MDWCPKDMWAECFN) | – | 0.083
113 | Phage-396 (TDWCPRDMWYLCFN) | – | 0.082
114 | Phage-397 (MDWCPRAMWDYCFY) | – | 0.123
115 | Phage-398 (MDWCPRNMWNECFF) | – | 0.095
116 | Phage-399 (MDWCPRSMWDSCFN) | – | 0.332
117 | Phage-400 (MHWCPTYMWSECFA) | – | 0.070
118 | Phage-401 (MDWCPLDMWVLCFA) | – | 0.085
119 | Phage-402 (MDWCPRHMWHECFH) | – | 0.067
120 | Phage-403 (MSWCPWDMWNECFA) | – | 0.069
121 | Phage-404 (MDWCPRDMWTSCFN) | – | 0.100
122 | Phage-405 (MDWCPMSMWAFCFD) | – | 0.102
123 | Phage-406 (MNWCPIDMWTECFN) | – | 0.245
